Results as given in patent US20140288110A1, “PPAR MODULATORS” (EVOLVA SA, priority 2006, published 2014).

What was measured:
3T3-L1 / MEFs = assay: Adipocyte differentiation assay, induction, Oil Red O staining; type: cell-based, mouse; design: key to Adip.: 0: representing similar results to DPD; −1: representing even less adipocyte differentiation; +1: representing more adipocyte differentiation (both relative to DPD); details: for Adip.: adipocyte differentiation relative to DPD (SN1), Oil Red O staining; for induction of adipocyte differentiation (red staining), in words: induction assay, Oil Red O
Procedure: This example describes an assay for determining adipocyte differention. Compounds are tested to see whether they induce adipocyte differentiation and also to see whether they inhibit adipocyte differention.
MEFs were grown in AmnioMax basal medium (Gibco) supplemented with 7.5% Amniomax supplement C-100 (Gibco), 7.5% Fetal Bovine Serum (FBS), 2 mM Glutamine, 62.5 μg/ml penicillin and 100 μg/ml Streptomycin (growth medium). At confluence, MEFs were induced to differentiation in growth medium with the addition of 1 microM dexamethasone (Sigma) 0.5 mM isobutylmethylxanthine (Sigma), 5 microg/ml insulin (Sigma) and 10 microM test compound dissolved in DMSO or DMSO alone. Medium was subsequently renewed every 48 hrs with growth media supplemented with 5 microg/ml Insulin and ligand or DMSO.
Briefly, to test compounds as inducers of adipocyte differentiation, 3T3-L1 are grown to confluence in DMEM with 10% Calf serum (CS), typically in 24 well dishes. At 2 days post confluence (day 0), cells are induced to differentiate with DMEM supplemented with 10% fetal bovine serum (FBS), 1 μM dexamethasone and the test compound ([…], 1 and 10 microM). BRL49653 (1.0 μM dissolved in 100% Me2SO) is used as a positive control. After 48 h, the cells are re-fed with DMEM containing 10% FBS supplemented with the test compound or the positive control. From day 4, cells are grown in DMEM with 10% FBS and are changed every second day until day 8. At day 8, cells are stained with Oil Red O as described below.
Cells cultured as described above are used for Oil Red staining. Dishes are washed in PBS and cells were fixed in 3.7% paraformaldehyde for 1 h and stained with oil red O as described in (Hansen et al 1999). Oil red O solution stock solution is prepared by dissolving 0.5 g of Oil Red O (Sigma) in 100 ml of isopropanol. Oil re O working solution is prepared by diluting a stock solution with water (6:4) followed by filtration.
Table II summarizes results obtained with different analogs of DPD (SN1), “0” representing similar results to DPD, “−1” representing even less adipocyte differentiation, “+1” representing more adipocyte differentiation (both relative to DPD) and “−” meaning not assayed.

[1] = tested on: PPARgamma ligand-binding domain (Gal4-PPARgammaLBD); assay: PPARgamma transactivation assay (Gal4-PPARgammaLBD, UASx4-TK luc reporter); type: cell-based; details: for PPAR: PPARgamma activating activity compared with 10 microM DPD (SN1)
Source text: This is an example of a transactivation assay for determining PPAR gamma modulating activity.
The UASx4-TK-luc reporter construct (where UAS refers to “upstream activator sequence”) contains four Gal4-responsive elements. The plasmid Gal4-PPARgammaLBD encodes a Gal4-DBD-PPARgamma-LBD fusion protein (i.e. the DNA-binding domain, DBD, of Gal4 fused to the ligand-binding domain, LBD, of PPARgamma) capable of transactivating the UASx4-TK-luc reporter plasmid by binding to the UAS. The CMV-beta-galactosidase plasmid (where CMV is cytomegalovirus) is used for normalization of experimental values.
The cells were replated, typically in 24 well plates, so that at the time of transfection the cells are 50-70% confluent.
Briefly, per well in a 24 well plate, UASx4TKluc (0.2 microg) Gal4-PPARgammaLBD (or pM-hPPARgamma-LBD; 0.1 microg) and CMV-beta-galactosidase (0.05 microg) in 30 μL DMEM (free of serum and antibiotics) is mixed with 30 microL DMEM (free of serum and antibiotics) containing 1 microL metafectenein. The mixture is incubated at room temperature for 20 min to allow formation of nucleic acid-lipid complexes and then approximately 60 microL is added to each well containing the 50-60% confluent cells. […] Cells were harvested after 12-24 hours and luciferase and beta-galactosidase activities were measured according to standard protocols.
“−” means that testing was not performed.

mPPARalphaLBD = biological target: T1, mPPARalphaLBD (Mus musculus, UniProt P23204); assay: PPARalpha transactivation assay (mPPARalphaLBD); type: cell-based
T1 construct: expressed in transfected cells
T1 sequence (P23204 239-466 limits assumed): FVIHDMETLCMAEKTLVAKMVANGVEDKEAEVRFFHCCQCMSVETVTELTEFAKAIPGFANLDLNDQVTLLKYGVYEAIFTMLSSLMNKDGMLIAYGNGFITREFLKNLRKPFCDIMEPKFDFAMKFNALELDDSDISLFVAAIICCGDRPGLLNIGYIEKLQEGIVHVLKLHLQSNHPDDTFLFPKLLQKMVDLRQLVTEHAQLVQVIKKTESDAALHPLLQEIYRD
Procedure: This example describes a transactivation assay for determining PPARalpha modulating activity.
DPD and other ligands are tested for their ability to transactivate PPAR alpha essentially as described in Example 1.

**Q.** For `O=C(O)CC/C=C\C[C@@H]1COC(c2ccccc2F)O[C@@H]1c1ccccc1O` (mixture of isomers) [compound 4], which Adip. (3T3-L1 / MEFs) is on record?
**A.** 0

**Q.** What does the source list for `O=C(O)CC/C=C\C[C@@H]1COC(c2cccc3c2OCO3)O[C@@H]1c1ccccc1O` (mixture of isomers) [compound 5]?
**A.** PPAR [1]: P−; Adip. (3T3-L1 / MEFs): 0

**Q.** Which “PPAR gamma modulating activity, in words” value [1] does the source give for `COc1ccc(Oc2ccccc2C2OC[C@@H](C/C=C\CCC(=O)O)[C@@H](c3ccccc3O)O2)cc1` (mixture of isomers) [compound 7] here?
**A.** higher potency

**Q.** And the Adip. (3T3-L1 / MEFs)?
**A.** 0

**Q.** And the “induction of adipocyte differentiation (red staining), in words” value (3T3-L1 / MEFs)?
**A.** low or no adipocyte differentiation

**Q.** Which “PPAR gamma modulating activity, in words” value [1] does the source give for `O=C(O)CC/C=C\C[C@@H]1COC(c2ccccc2-c2ccccc2)O[C@@H]1c1ccccc1O` (mixture of isomers) [compound 10] here?
**A.** PPAR gamma antagonist

**Q.** And the PPAR [1]?
**A.** Antagonist

**Q.** What about the Adip. (3T3-L1 / MEFs) of the same molecule?
**A.** 0

**Q.** `COc1cccc([C@H]2OC[C@@H](C/C=C\CCC(=O)O)[C@@H](c3ccccc3O)O2)c1OC` (mixture of isomers) [compound 19] was tested. Which Adip. (3T3-L1 / MEFs) did it give?
**A.** 0

**Q.** `CC(C)(Sc1ccc(CCN(CCCCC2CCCCC2)C(=O)NC2CCCCC2)cc1)C(=O)O` [GW7647, reference compound] was tested. Which “increase of PPAR alpha transactivation” value (mPPARalphaLBD) did it give?
**A.** over 2 fold

**Q.** `O=C(O)CC/C=C\C[C@@H]1CO[C@H](c2ccccc2Cl)O[C@@H]1c1ccccc1O` [compound 1] was tested. Which Adip. (3T3-L1 / MEFs) did it give?
**A.** 0

**Q.** With `O=C(O)CC/C=C\C[C@@H]1COC(c2cccc(Cl)c2Cl)O[C@@H]1c1ccccc1O` (stereo partly drawn) [compound 2] as the molecule, how does the Adip. (3T3-L1 / MEFs) read?
**A.** 0

**Q.** `O=C(O)CC/C=C\C[C@@H]1COC2(CCCCC2)O[C@@H]1c1ccccc1O` [compound 6] was tested. Which Adip. (3T3-L1 / MEFs) did it give?
**A.** 0

**Q.** Which results are given for `O=C(O)CC/C=C\C[C@@H]1COC2(CCNCC2)O[C@@H]1c1ccccc1O` [compound 8]?
**A.** PPAR [1]: Boc derivative Inactive; Adip. (3T3-L1 / MEFs): −1

**Q.** How did the Adip. (3T3-L1 / MEFs) turn out when `O=C(O)CC/C=C\C[C@@H]1COC(c2cccc3ccccc23)O[C@@H]1c1ccccc1O` (stereo partly drawn) [compound 9] was run?
**A.** 0

**Q.** For `CCCCCC1OC[C@@H](C/C=C\CCC(=O)O)[C@@H](c2ccccc2O)O1` (stereo partly drawn) [compound 11], which Adip. (3T3-L1 / MEFs) is on record?
**A.** +1

**Q.** Which Adip. (3T3-L1 / MEFs) does the source give for `C/C=C/CC1OC[C@@H](C/C=C\CCC(=O)O)[C@@H](c2ccccc2O)O1` (stereo partly drawn) [compound 12] here?
**A.** −1

**Q.** Which “PPAR gamma modulating activity, in words” value [1] does the source give for `O=C(O)CC/C=C\C[C@@H]1COC(c2coc3ccc(Cl)cc3c2=O)O[C@@H]1c1ccccc1O` (stereo partly drawn) [compound 13] here?
**A.** higher potency

**Q.** What about the Adip. (3T3-L1 / MEFs) of the same molecule?
**A.** −1

**Q.** What about the “induction of adipocyte differentiation (red staining), in words” value (3T3-L1 / MEFs) of the same molecule?
**A.** low or no adipocyte differentiation

**Q.** `COc1ccccc1[C@H]1OC[C@@H](C/C=C\CCC(=O)O)[C@@H](c2ccccc2O)O1` [compound 18] was tested. Which Adip. (3T3-L1 / MEFs) did it give?
**A.** −1

**Q.** For `CC(C)[C@H]1OC[C@@H](C/C=C\CCC(=O)O)[C@@H](c2ccccc2O)O1` [compound 20], which Adip. (3T3-L1 / MEFs) is on record?
**A.** 0

**Q.** `O=C(O)CC/C=C\C[C@@H]1CO[C@H](C2CCCCC2)O[C@@H]1c1ccccc1O` [compound 21] was tested. Which Adip. (3T3-L1 / MEFs) did it give?
**A.** 0

**Q.** How did the Adip. (3T3-L1 / MEFs) turn out when `O=C(O)CCC/C=C\C[C@@H]1CO[C@H](c2ccccc2Cl)O[C@@H]1c1ccccc1O` [compound 23] was run?
**A.** +1

**Q.** How did the PPAR [1] turn out when `O=C(O)CC/C=C\C[C@@H]1COC(c2ccccc2Cl)O[C@@H]1c1ccccc1O` (stereo partly drawn) [compound 27] was run?
**A.** Inactive

**Q.** For `COc1ccccc1[C@H]1O[C@@H](c2c(Cl)cccc2Cl)OC[C@H]1C/C=C\CCC(=O)O` [compound 28], which PPAR [1] is on record?
**A.** Inactive

**Q.** For `O=C(O)CCCCCCC[C@@H]1CO[C@H](c2ccccc2Cl)O[C@@H]1c1ccccc1O` [compound 31], which Adip. (3T3-L1 / MEFs) is on record?
**A.** 0

**Q.** With `CC1(C)OC[C@@H](C/C=C\CCCCC(=O)O)[C@@H](c2ccccc2O)O1` [compound 36] as the molecule, how does the PPAR [1] read?
**A.** Inactive

**Q.** What does the source list for `COc1ccccc1[C@H]1OC(C)(C)OC[C@H]1C/C=C\CCCCC(=O)O` [compound 37]?
**A.** PPAR [1]: Inactive; Adip. (3T3-L1 / MEFs): 0

**Q.** How did the “PPAR transactivation, fold higher than with DMSO alone” value ([1]; Gal4-PPARgammaLBD, DPD at 10 microM) turn out when `CN(CCOc1ccc(CC2SC(=O)NC2=O)cc1)c1ccccn1` (stereo not drawn) [rosiglitazone, reference compound] was run?
**A.** over 40 fold
